Legend:
[1] = In vivo pharmacokinetic study in dogs, oral dose of ARI-158; design: species or system male beagle dogs; settings: for Plasma Concentration / AUC(0-inf) / AUC(0-t) / Cmax / Tmax / half-life / concentration at 0.083 h / concentration at 0.25 h / concentration at 0.5 h / concentration at 1 h / concentration at 2 h / concentration at 4 h / concentration at 6 h / concentration at 8 h: dogs, 10 mg/kg oral dose of ARI-158; for AUC(0-inf) / AUC(0-t) / Cmax / Tmax / half-life / concentration at 0.083 h / concentration at 0.25 h / concentration at 0.5 h / concentration at 1 h / concentration at 2 h / concentration at 4 h / concentration at 6 h / concentration at 8 h: male, beagle, dog, plasma, po, 10 mg/kg
Procedure: This example describes pharmacokinetic (PK) studies of ARI-158 and ARI-160 in dogs and rats, respectively. In the present studies, the test compounds were given to groups of male beagle dogs and rats (N=3 in each group) intravenously (IV) at 2 mg/kg or orally (PO) at 10 mg/kg. IV doses were formulated in DMSO, while PO doses were formulated in a 50/50 mixture of PEG400 and Tween 80. Blood samples were collected at pre-dose and over a period of 24 hours post-dose. Plasma concentrations of the indolo-phosphoramidate compounds were determined by HPLC.

EMT-6 cancer cells = assay: Anti-tumor activity in EMT-6 syngeneic mouse tumor model; type: in vivo; settings: 80 mpk
Procedure: This example describes in vivo studies that evaluated the anti-cancer efficacy of ARI-158 and ARI-160 in syngeneic mouse tumor models. Mice implanted subcutaneously with EMT-6 cancer cells were treated with ARI-158 and ARI-160, or vehicle controls, as described below.
A monolayer culture of tumor cells was maintained in vitro in DMEM or RPMI1640 medium supplemented with 10% fetal bovine serum at 37° C. in an atmosphere of 5% CO2. Cells in exponential growth phase were harvested and quantitated by cell counter before tumor inoculation.
EMT-6 syngeneic mouse tumor models were generated by inoculating female BALB/C 6 mice with EMT-6 cancer cells at their right lower flank.
Each mouse was inoculated subcutaneously with tumor cells in 0.1 mL of PBS. Treatments were started when the mean tumor size reached approximately 80-120 mm^3 (around 100 mm^3). The administration of the test compounds and the animal number in each study group are shown in the study design. The date of tumor cell inoculation was denoted as day 0.
ARI-158 and ARI-160 were dissolved in DMSO at the final concentration of 26.7 mg/ml and stored at room temperature.
Randomization of animals was started when the mean tumor size reached approximately 90 mm^3 to form the mouse study groups. The randomization was performed based on “Matched distribution” method using the multi-task method (StudyDirector™ software, version 3.1.399.19)/randomized block design. […]
Tumor volumes were measured twice per week in two dimensions using a caliper, and the volume was expressed in mm^3 using the formula: […]
where V is tumor volume, L is tumor length (the longest tumor dimension) and W is tumor width (the longest tumor dimension perpendicular to L). Dosing as well as tumor and body weight measurements was conducted in a Laminar Flow Cabinet. The body weights and tumor volumes were measured by using StudyDirector™ software (version 3.1.399.19).
Tumor growth inhibition percentage (TGI %) is an indicator for antitumor activity of a drug compound, and expressed as: […]
where T and C are the mean tumor volume (or weight) of the treated and control groups, respectively, on a given day. Statistical analysis of the difference in mean tumor volume (MTV) among the groups was conducted using the data collected on the day when the MTV of the vehicle group reached the humane endpoints, so that TGI could be derived for all or most mice enrolled in the study.

Plasma Concentration ([1]; time 0 h, Dog 10): BLQ
Plasma Concentration ([1]; time 0 h, Dog 11): BLQ
Plasma Concentration ([1]; time 0 h, Dog 12): BLQ
Plasma Concentration ([1]; time 8 h, Dog 11): BLQ
Plasma Concentration ([1]; time 24 h, Dog 10): BLQ
Plasma Concentration ([1]; time 24 h, Dog 11): BLQ
Plasma Concentration ([1]; time 24 h, Dog 12): BLQ
AUC(0-inf) ([1]; Dog 10): 1020 ng·h/mL
AUC(0-t) ([1]; Dog 10): 1020 ng·h/mL
Cmax ([1]; Dog 10): 786 ng/mL
Tmax ([1]; Dog 10): 30 min
half-life ([1]; Dog 10): 82.2 min
AUC(0-inf) ([1]; Dog 11): 677 ng·h/mL
AUC(0-t) ([1]; Dog 11): 675 ng·h/mL
Cmax ([1]; Dog 11): 561 ng/mL
Tmax ([1]; Dog 11): 30 min
half-life ([1]; Dog 11): 39.2 min
AUC(0-inf) ([1]; Dog 12): 676 ng·h/mL
AUC(0-t) ([1]; Dog 12): 669 ng·h/mL
Cmax ([1]; Dog 12): 275 ng/mL
Tmax ([1]; Dog 12): 60 min
half-life ([1]; Dog 12): 61.2 min
AUC(0-inf) ([1]; Mean): 791 ng·h/mL
AUC(0-t) ([1]; Mean): 787 ng·h/mL
Cmax ([1]; Mean): 541 ng/mL
Tmax ([1]; Mean): 40 min
half-life ([1]; Mean): 60.6 min
concentration at 0.083 h ([1]; Dog 10): 153 ng/mL
concentration at 0.083 h ([1]; Dog 11): 149 ng/mL
concentration at 0.083 h ([1]; Dog 12): 14.3 ng/mL
concentration at 0.083 h ([1]; Mean): 105 ng/mL
concentration at 0.25 h ([1]; Dog 10): 438 ng/mL
concentration at 0.25 h ([1]; Dog 11): 414 ng/mL
concentration at 0.25 h ([1]; Dog 12): 87.3 ng/mL
concentration at 0.25 h ([1]; Mean): 313 ng/mL
concentration at 0.5 h ([1]; Dog 10): 786 ng/mL
concentration at 0.5 h ([1]; Dog 11): 561 ng/mL
concentration at 0.5 h ([1]; Dog 12): 178 ng/mL
concentration at 0.5 h ([1]; Mean): 508 ng/mL
concentration at 1 h ([1]; Dog 10): 677 ng/mL
concentration at 1 h ([1]; Dog 11): 311 ng/mL
concentration at 1 h ([1]; Dog 12): 275 ng/mL
concentration at 1 h ([1]; Mean): 421 ng/mL
concentration at 2 h ([1]; Dog 10): 128 ng/mL
concentration at 2 h ([1]; Dog 11): 102 ng/mL
concentration at 2 h ([1]; Dog 12): 158 ng/mL
concentration at 2 h ([1]; Mean): 129 ng/mL
concentration at 4 h ([1]; Dog 10): 11.2 ng/mL
concentration at 4 h ([1]; Dog 11): 14.4 ng/mL
concentration at 4 h ([1]; Dog 12): 69.8 ng/mL
concentration at 4 h ([1]; Mean): 31.8 ng/mL
concentration at 6 h ([1]; Dog 10): 3.28 ng/mL
concentration at 6 h ([1]; Dog 11): 1.47 ng/mL
concentration at 6 h ([1]; Dog 12): 14.1 ng/mL
concentration at 6 h ([1]; Mean): 6.28 ng/mL
concentration at 8 h ([1]; time 8 h, Dog 10): 1.47 ng/mL
concentration at 8 h ([1]; time 8 h, Dog 12): 4.62 ng/mL
concentration at 8 h ([1]; time 8 h, Mean): 3.05 ng/mL
SMILES: CCC(=O)c1csc(C(=O)c2cn(P(=O)([O-])[O-])c3cc(F)ccc23)n1.[Na+].[Na+] [ARI-158]
absorption ([1]; oral administration in dogs, compared with ARI-143): absorbed much more efficiently than ARI-143
anti-tumor efficacy (TGI) comparison (EMT-6 cancer cells): better efficacy than ARI-160
TGI (EMT-6 cancer cells; study day 6): −0.01%
TGI (EMT-6 cancer cells; study day 10): 2.92%
TGI (EMT-6 cancer cells; study day 13): −1.75%
TGI (EMT-6 cancer cells; study day 17): 17.21%
TGI (EMT-6 cancer cells; study day 20): 38.27%
TGI (EMT-6 cancer cells; study day 24): 44.41%
TGI (EMT-6 cancer cells; study day 27): 42.16%
TGI (EMT-6 cancer cells; study day 31): 39.97%
